Laboratory results published in PubChem BioAssay AID463206 (Broad Institute, 2010).
Calls of active or inactive are those of the source.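 The calls were made as follows: active = caspase luminescence falls with dose and the half-maximal concentration AC50 from the fitted curve is at or below a set limit; inconclusive = flat fit at 30 to 70% signal loss, or invalid fit; inactive = AC50 above the limit, or signal rises instead.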

Each compound was assayed on INS-1E cytokine-induced caspase-3/7, Caspase-Glo luminescence, 48 h (assay: inhibitors of cytokine-induced caspase-3/7 activity, dose response, orthogonal assay for beta-cell apoptosis protection project, INS-1E rat cells, luminescence (AID 463206)).

| Compound | AC50 |
| --- | --- |
| COc1cccc(/C=N/NC(=O)C(=O)Nc2ccccc2OC(F)(F)C(F)F)c1O | > 26 µM (inactive) |
| Cc1cccc(NC2=C(NC(=O)c3ccccc3)C(=O)c3ccccc3C2=O)c1 | > 26 µM (inactive) |
| COC(=O)c1cc(=O)n(CCc2ccccc2F)c(=Nc2ccc(F)c(Cl)c2)s1 | > 26 µM (inactive) |
| COc1ccc(N2CC(C(=O)N3CCN(c4ccccc4F)CC3)CC2=O)cc1 (stereo not given) | > 26 µM (inactive) |
| Cc1ccc(NC2=CC(=O)C(=O)c3ccccc32)c(C)c1 | > 26 µM (inactive) |
| CCCCOc1cc(NCc2ccccc2)c2ncn(C(C)C)c2c1 | > 26 µM (inactive) |
| Cc1ccc(O)c(CNc2cccc3cccnc23)c1 | > 12 µM (inactive) |
| OCCCNc1c2ccccc2nc2ccccc12 | 7.37 µM |
| C=CCn1cc(/C=C/c2cc[n+](C)cc2)c2ccccc21 | > 26 µM (inactive) |
| CCCC(=O)NC(c1ccc(OC)c(OC)c1)c1cc(Cl)c2cccnc2c1O (stereo not given) | > 26 µM (inactive) |
| CCCCNc1cc(C)nc(NCc2ccccc2)n1 | > 26 µM (inactive) |
| Cc1cc(C(=O)c2ccc3ccccc3c2)c(C)o1 | > 26 µM (inactive) |
| Oc1ccc(Nc2nc(-c3ccc4ccccc4c3)cs2)cc1 | > 26 µM (inactive) |
| CCCCn1c(=N)n(CC(=O)c2ccc(Br)s2)c2ccccc21 | > 26 µM (inactive) |
| CC(=O)/C=C1\N(C)c2ccc(C)cc2C1(C)C | > 26 µM (inactive) |
| CCC(/C=C1\Sc2ccc(OC)cc2N1CC)=C\c1sc2ccc(OC)cc2[n+]1CCCS(=O)(=O)[O-] | > 26 µM (inactive) |
| Cc1ccc(Nc2cc(C)nc(NCc3ccccc3)n2)cc1 | > 12 µM (inactive) |
| Cc1ccc2nc(/C(C#N)=C\c3ccc([N+](=O)[O-])o3)[nH]c2c1 | > 26 µM (inactive) |
| Cc1ccccc1CNc1ccc(C(CC(N)=O)NC(=O)c2ccc(Br)cc2)cc1[N+](=O)[O-] (stereo not given) | > 26 µM (inactive) |
| COc1ccc(O)c(/C=N/NC(=O)c2ccc(OCc3cccc(Br)c3)cc2)c1 | > 26 µM (inactive) |
| N#CC(C#N)=NNc1ccc(-n2ccc(C(F)(F)F)n2)cc1 | > 26 µM (inactive) |
| Oc1ccc(Br)cc1/C=N/Nc1ccccn1 | > 26 µM (inactive) |
| CC(C)(C)c1ccc(NNC(=O)C2CCC2)cc1 | > 26 µM (inactive) |
| CCOc1cc(/C=C2\COc3ccccc3C2=O)cc(Br)c1OCC(=O)N(C)C | > 26 µM (inactive) |

| Compound | AC50 |
| --- | --- |
| CCOc1cc(CNCCc2ccc(S(N)(=O)=O)cc2)ccc1OCc1ccc(Cl)cc1 | > 26 µM (inactive) |
| O=c1c2ccccc2nc(N/N=C/c2c(O)ccc3ccccc23)n1O | > 26 µM (inactive) |
| C=CCN(CC=C)CC(O)Cn1c2ccccc2c2ccccc21 (stereo not given) | > 26 µM (inactive) |
| CCC(=O)NC(c1cccs1)c1ccc2cccnc2c1O (stereo not given) | > 26 µM (inactive) |
| CCN(CC)CCNC(=O)c1ccc(NC(=O)c2cn(-c3ccccc3)nc2-c2cccs2)cc1 | 18.2 µM |
| CSc1ccc(S(=O)(=O)Nc2ccc(N3CCOCC3)c(Cl)c2)cc1 | > 26 µM (inactive) |
| Cc1cccc(CNc2ccc(S(=O)(=O)N3CCCCC3)cc2)c1 | > 26 µM (inactive) |
| Cc1cc(C(=O)NC2CCCc3c2cnn3-c2ccc(C)c(C)c2)n(C)n1 (stereo not given) | > 26 µM (inactive) |
| Cc1cc(C(C)(C)CC(C)(C)C)ccc1OCCOCC[N+](C)(C)Cc1ccccc1 | > 26 µM (inactive) |
| CCC(CO)Oc1cc(NCc2ccc(C)c(C)c2)c2ncn(C(C)C)c2c1 (stereo not given) | > 26 µM (inactive) |
| CCCCCCSc1cc(-c2nc3ccc(C)cn3c2NCCCC)ccc1OC | > 26 µM (inactive) |
| c1ccc(/N=C2\N=C(Nc3ccccn3)c3ccccc32)nc1 | > 26 µM (inactive) |
| CC(=O)/C=C/n1c(=S)oc2ccccc21 | > 26 µM (inactive) |
| O=C1C(=O)c2ccc(-c3ccccc3)cc2-c2ccccc21 | > 26 µM (inactive) |
| CC(C)c1cccc(C(C)C)c1OC(=O)[C@H]1OC(C(C)(C)C)=C[C@@H]1c1ccccc1 | > 26 µM (inactive) |
| CC(C)(C)c1cc[n+](C2=C([O-])c3ccccc3C(=O)/C2=N\S(=O)(=O)c2cccs2)cc1 | > 26 µM (inactive) |
| CC(=O)NC(c1cc(Cl)c2cccnc2c1O)C(C)C (stereo not given) | > 26 µM (inactive) |
| COc1ccc(-c2c[n+]3c4n2CCCCC4=C(c2ccc(Br)cc2)C3)cc1 | > 26 µM (inactive) |
| CCOc1ccc(Nc2cc(C)nc(-n3nc(C)cc3C)n2)cc1 | > 26 µM (inactive) |
| Cc1ccc(C)n1-c1ccc(C(=O)Nc2ccccc2)cc1 | > 26 µM (inactive) |
| CCOc1ccc(N=Cc2c(C)[nH]n(-c3nc4ccccc4[nH]3)c2=O)cc1 | > 26 µM (inactive) |
| CCN(CC)c1ccc(/C=N/Nc2nc(C)cc(C)n2)c(O)c1 | > 26 µM (inactive) |
| CCOc1cc(C)c(S(=O)(=O)Nc2ccc3cn[nH]c3c2)cc1C | > 12 µM (inactive) |
| N#Cc1ccc(-c2ccc(Cl)cc2)nc1SCC(=O)c1cccc(Cl)c1 | > 26 µM (inactive) |

| Compound | AC50 |
| --- | --- |
| C[C@H]1CCC/C=C/[C@@H]2C[C@H](O)C[C@H]2[C@H](O)/C=C/C(=O)O1 | > 26 µM (inactive) |
| Cc1cccc(Cn2nnc3c2C(=O)c2ccccc2C3=O)c1 | > 26 µM (inactive) |
| CCC(=O)NC(c1ccc(C)cc1)c1cc(Cl)c2cccnc2c1O (stereo not given) | > 26 µM (inactive) |
| O=S(=O)(c1ccc(NC(=S)NCc2cccnc2)cc1)N1CCCCC1 | > 26 µM (inactive) |
| CC1CCC(C(C)C)C(OC(=O)C[n+]2cc(-c3ccc(Cl)cc3)n3c2CCCCC3)C1 (stereo not given) | > 26 µM (inactive) |
| CC(C)=CCc1cc2c(=O)c3c(O)c4c(cc3oc2c(O)c1O)OC(C)C4(C)C (stereo not given) | > 26 µM (inactive) |
| On1onc2c3cc(-c4ccccc4)nc3ccc21 | > 26 µM (inactive) |
| Cc1oc2c(c1C(=O)N1CCOCC1)C(=O)c1ccccc1C2=O | > 26 µM (inactive) |
| Cc1ccc(N=Cc2c(C)[nH]n(-c3nc4ccccc4[nH]3)c2=O)cc1 | > 26 µM (inactive) |
| FC(F)(F)c1ccc(CN2C[C@@H]3C(c4ccc(C(F)(F)F)cc4)C4(c5cccnc5)CC3(C4)[C@H]2c2ccccc2)cc1 (stereo not given in full) | > 26 µM (inactive) |
| CC(=O)Nc1ccc(S(=O)(=O)NC2=C(N3CCN(C)CC3)C(=O)c3ccccc3C2=O)cc1 | > 26 µM (inactive) |
| C/C(=N\NC(N)=S)c1ccncc1 | > 26 µM (inactive) |
| Cc1ccc(NC(=O)COc2ccc(N(C)C(=O)C(C)(C)C)cc2)cc1S(=O)(=O)N1CCCCC1 | > 26 µM (inactive) |
| C=CC[C@@H](CC(=O)N(CCO)Cc1ccccc1)C(=O)N[C@H](COC(=O)[C@@H](CC=C)CC(=O)OC(C)(C)C)c1ccccc1 | > 26 µM (inactive) |
| CC1(C(=O)OCC(=O)N2c3ccccc3Sc3ccccc32)CC1(Cl)Cl (stereo not given) | > 26 µM (inactive) |
| C/C(=N\NC(=O)c1cccc(Br)c1)c1ccccn1 | > 26 µM (inactive) |
| CCn1cc(/C=C/c2cc[n+](C)cc2)c2ccccc21 | > 26 µM (inactive) |
| Oc1ccccc1/C=N/Nc1nccnc1Cl | > 26 µM (inactive) |
| Cc1nc(C(F)(F)F)c(C(=O)N/N=C(\N)c2ccccn2)s1 | > 26 µM (inactive) |
| Cc1ccc(-c2cn(-c3ccc(SC(F)F)cc3)c3[n+]2CCC3)cc1 | > 26 µM (inactive) |
| O=C(CCl)N(c1ccccc1)C1CCCCC1 | > 26 µM (inactive) |
| CC(=O)c1c(C)n(CC(=O)NCc2ccco2)c2ccccc12 | > 26 µM (inactive) |
